Reference: patent publication US10822317B2, “Methods and compositions for wound healing” (QBiotics Limited, priority 2013, dated 2020)

Tests used:
[1] = tested on: human neonatal fibroblasts; assay: Scratch closure, human neonatal fibroblasts, Method 1; type: cell-based
Procedure: The ability of early. passage neonatal foreskin fibroblasts (NFF) cultured in RPMI 1640-10% foetal calf serum to migrate across a scratch wound made in a confluent monolayer following treatment with purified compounds or plant extracts was determined using one or more of the following three methods.
Cells were seeded in 16-mm diameter wells (24-well plates), allowed to become confluent and 2 scratches made in each well using a sterile plastic pipette tip. The medium was removed, the wells washed with phosphate-buffered saline pH 7.2 (PBS) to remove dislodged cells, fresh medium added followed by serial 10-fold dilutions of pure compound or plant extract (2 μL). Incubation was continued for 16 to 30 hr. The experiment was terminated when the scratch edges of untreated cultures had closed approximately 25% of the initial gap. The monolayers were washed with PBS, fixed with ethanol and stained with 0.05% crystal violet. Photomicrographs of each well (EVOS microscope) were printed and each scratch measured at 3 places to determine the mean width. Accelerated wound closure-was considered to be significant if the remaining gap was <40% of the gap of the untreated controls: […]

mouse skin = assay: Acute inflammatory response in mouse skin; type: in vivo; settings: male nude mice, s.c. 50 μL of 100 μg/mL; for scarring of the healed site: 14 days; for diameter of affected area of skin: by 24 hr
Procedure: Male nude mice were injected subcutaneously on each flank with 50 μL of solutions of 100 μg/mL of Compounds 1, 2, 5 and 42 respectively in 20% propylene glycol. Each site reddened within 4 hr and by 24 hr the affected area covered approximately 1 cm diameter of skin.

[2] = tested on: human neonatal fibroblasts; assay: Matrigel invasion assay for migratory ability; type: cell-based; settings: for Cell count as % of control (Control = no compounds added): 30 ng/mL, 24 hrs, fibroblasts starved 2 days, 1% foetal calf serum, ± standard deviation, two replicate experiments
Text: Matrigel invasion chambers provide cells with the conditions that allow assessment of their invasive property in vitro. The Matrigel invasion chambers consists of a cell culture companion plate with cell culture inserts containing an 8 micron pore size PET membrane with a thin layer of Matrigel Basement Membrane Matrix. The Matrigel matrix serves as a reconstituted basement membrane in vitro. The layer occludes the pores of the membrane, blocking non-invasive cells from migrating through the membrane. In contrast, invasive cells are able to detach themselves from and invade through the Matrigel matrix and the 8 micron membrane pores. The membrane may be processed for light and electron microscopy and can be easily removed after staining.
The chambers were used according to the manufacturer's instructions, as described below in two studies, to assess the effects of Compounds 1, 2, 5 and 42 on migration of human neonatal fibroblasts. The first study assessed effects of three concentrations (0, 10 and 30 ng/mL) of Compound 1 on neonatal fibroblasts in wells containing media with 10% foetal calf serum. The second study used two concentrations (0 and 30 ng/mL) for each of Compounds 1, 2, 5 and 42 to examine effects on migration of neonatal fibroblasts starved for 2 days prior to treatment and then transferred to media with 1% foetal calf serum.
The package containing the chambers was removed from −20° C. storage and allowed to come to room temperature. Warm (37° C.) bicarbonate based culture medium was added to the interior of the inserts (500 μL) and bottom of wells (750 μL). The chambers containing the Matrigel were allowed to rehydrate for 2 hours in humidified tissue culture incubator, 37° C., 5% CO2 atmosphere. After rehydration, the medium was carefully removed by aspiration without disturbing the layer of Matrigel™ Matrix on the membrane.
Cells were harvested, and resuspended at 20,000 cells per mL. A total of 250 μL of the cell suspension was placed into the interior of the insert (5,000 cells). An extra 250 μL media containing the respective Compounds was then added to the interior of the insert to give the desired final concentrations for each of the two studies. A total of 750 μL of media containing appropriate concentrations of each compound in each treatment were placed in the well under the appropriate insert. The Matrigel chambers were then incubated for 24 hours in a humidified tissue culture incubator, at 37° C., 5% CO2 atmosphere.
Non-invading cells were removed from the upper surface of the membrane by “scrubbing”. A cotton tipped swab was dipped into the insert after removal of the media, and firm pressure applied while the tip was moved over the membrane surface. The scrubbing was repeated with a second swab moistened with PBS. Cells that had invaded to the external surface of the insert were then fixed by placing in […] of 100% methanol for at least 5 mins. Inserts were then transferred to a companion plate containing 500 μL of 0.1% crystal violet in methanol, and stained for at least 15 mins. Inserts were destained by passage through 3 companion plates containing 500 μL water, before being air dried.
The following day, the membrane was removed from the insert housing by inverting the insert and inserting the tip of a sharp scalpel blade through the membrane at the edge adjacent to the housing wall. The insert housing was rotated against the stationary blade and the membrane was released. […]

Compound | % closure compared to control ([1]; 30 ng/mL) | % closure compared to control ([1]; 100 ng/mL) | scarring of the healed site (mouse skin) | diameter of affected area of skin (mouse skin) | Cell count as % of control (Control = no compounds added) [2] | staining pattern / growth of fibroblasts under the microscope ([1]; 24 hours post scratch) | migratory ability in the Matrigel invasion chamber system vs vehicle alone ([2]; first study, 10 or 30 ng/mL, 10% foetal calf serum, 24 hours)
CCC(C)C(=O)OC1C(C)C2(O)C(C3OC3(CO)C(O)C3(O)C(=O)C(C)=CC32)C2C(C)(C)C12OC(=O)C(C)CC (stereo not drawn) [Compound 2, 12,13-di-(2-methylbutanoyl)-6,7-epoxy-4,5,9,12,13,20-hexahydroxy-1-tigliaen-3-one] | 130% | 129% | minimal scarring | approximately 1 cm | 366 ± 122% |  | 
CC=C(C)C(=O)OC1C(C)C2(O)C(C3OC3(CO)C(O)C3(O)C(=O)C(C)=CC32)C2C(C)(C)C12OC(=O)C(C)CC (stereo not drawn) [Compound 1, 12-tigloyl-13-(2-methylbutanoyl)-6,7-epoxy-4,5,9,12,13,20-hexahydroxy-1-tigliaen-3-one] | 166% | 146% | minimal scarring | approximately 1 cm | 356 ± 141% | growing in a multilayered fashion | increased migratory ability
